# According to patent US10287269B2, “Pyrazolyl pyrimidinone compounds as PDE2 inhibitors” (Merck Sharp & Dohme Corp., priority 2015, dated 2019):
# Like-named read-outs stand apart in the source and are kept apart here.
# Biological target: T1, human PDE2A1 (Homo sapiens, UniProt O00408)
# T1 construct: GST; purchased BPS Bioscience (San Diego, Calif.) 60020; host or cells: insect cells
# Test: PDE2 IMAP FP inhibition assay, human enzyme (PDE selectivity panel format)
# Type: biochemical
# Procedure, shortened: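 GST-tagged human PDE2A1 from insect cells, run at room temperature in 10 mM Tris pH 7.2, 10 mM MgCl2, 1 mM DTT with 50 nM FAM-cAMP plus 1000 nM cGMP for 60 min. IMAP fluorescence polarization read-out; apparent Ki derived using apparent KM 10,000 nM.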
# [1] = Lab A, read-out: Human PDE2 Ki (nM) Lab A
# [2] = Lab B, read-out: Human PDE2 Ki (nM) Lab B
# T1 sequence (O00408 1-920 isoform O00408-2): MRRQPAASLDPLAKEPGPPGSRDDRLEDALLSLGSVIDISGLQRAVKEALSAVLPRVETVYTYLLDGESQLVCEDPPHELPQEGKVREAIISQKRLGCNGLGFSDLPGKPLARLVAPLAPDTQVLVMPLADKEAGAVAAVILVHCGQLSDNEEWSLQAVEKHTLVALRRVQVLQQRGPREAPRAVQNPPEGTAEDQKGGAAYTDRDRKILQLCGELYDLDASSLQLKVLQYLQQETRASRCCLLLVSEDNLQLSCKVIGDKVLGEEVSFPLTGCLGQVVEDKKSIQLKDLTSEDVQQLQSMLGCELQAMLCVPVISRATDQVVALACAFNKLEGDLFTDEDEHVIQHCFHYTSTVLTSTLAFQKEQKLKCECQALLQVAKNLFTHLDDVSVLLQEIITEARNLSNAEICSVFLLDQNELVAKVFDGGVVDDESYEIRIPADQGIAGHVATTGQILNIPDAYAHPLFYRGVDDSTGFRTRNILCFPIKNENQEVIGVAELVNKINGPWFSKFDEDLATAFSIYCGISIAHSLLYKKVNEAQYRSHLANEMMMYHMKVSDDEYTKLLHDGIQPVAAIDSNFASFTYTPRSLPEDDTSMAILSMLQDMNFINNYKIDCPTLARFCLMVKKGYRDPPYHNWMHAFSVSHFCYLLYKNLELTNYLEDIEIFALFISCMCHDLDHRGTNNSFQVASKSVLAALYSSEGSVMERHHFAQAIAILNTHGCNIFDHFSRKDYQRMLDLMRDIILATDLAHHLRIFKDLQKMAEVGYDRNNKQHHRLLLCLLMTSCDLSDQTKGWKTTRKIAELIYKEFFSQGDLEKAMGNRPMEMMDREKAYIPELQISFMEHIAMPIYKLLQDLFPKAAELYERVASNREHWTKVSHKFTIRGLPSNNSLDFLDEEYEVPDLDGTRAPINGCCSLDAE
SMILES,Ki [1] [nM],Ki [2] [nM]
"Cc1nc(-n2cc([C@](C)(O)c3ccc(C(F)(F)F)cc3F)cn2)cc(=O)[nH]1 (single isomer, unassigned) [Example 15]",–,11.7
"Cc1nc(-c2cnn(C(C)c3ccc(S(F)(F)(F)(F)F)cc3)c2)cc(=O)[nH]1 (single isomer, unassigned) [Example 62, (R)- or (S)-2-methyl-6-(1-(1-(4-(pentafluorosulfanyl)phenyl)ethyl)-1H-pyrazol-4-yl)pyrimidin-4(3H)-one]",–,86.5
"Cc1nc(-n2cc([C@H](C)c3ccc(C(F)(F)F)cc3)cn2)cc(=O)[nH]1 (single isomer, unassigned) [Example 3]",–,40.3

# Further lines, results first:
Ki [1] [nM],Ki [2] [nM],SMILES
27.9,–,"COc1cc(Cc2nc(-c3cnn(C(C)c4ccc(C(F)(F)F)cc4F)c3)cc(=O)[nH]2)ccc1F (single isomer, unassigned) [Example 143, (S)- or (R)-2-(4-fluoro-3-methoxybenzyl)-6-(1-(1-(2-fluoro-4-(trifluoromethyl)phenyl)ethyl)-1H-pyrazol-4-yl)pyrimidin-4(3H)-one]"
7.2,3.3,"COc1ccc(Cc2nc(-c3cnn(C(C)c4ccc(S(F)(F)(F)(F)F)cc4)c3)cc(=O)[nH]2)cc1OC (single isomer, unassigned) [Example 64, (R)- or (S)-2-(3,4-dimethoxybenzyl)-6-(1-(1-(4-(pentafluorosulfanyl)phenyl)ethyl)-1H-pyrazol-4-yl)pyrimidin-4(3H)-one]"
5.1,–,"Cc1nc(-c2cnn(C(C)c3ccc(C(F)(F)F)cc3Cl)c2)cc(=O)[nH]1 (single isomer, unassigned) [Example 83, (R)- or (S)-6-(1-(1-(2-chloro-4-(trifluoromethyl)phenyl)ethyl)-1H-pyrazol-4-yl)-2-methylpyrimidin-4(3H)-one]"
7.9,–,"Cc1nc(-c2cnn(C3(c4ccc(C(F)(F)F)cc4F)CCC3)c2)cc(=O)[nH]1 [Example 37, 6-(1-(1-(2-fluoro-4-(trifluoromethyl)phenyl)cyclobutyl)-1H-pyrazol-4-yl)-2-methylpyrimidin-4(3H)-one]"
